Data as given in ChEMBL document CHEMBL5729558, “Morpholinylpyridone compounds” (2023).

The compounds below were run against Phosphatidylinositol 3-kinase catalytic subunit type 3 (Homo sapiens, UniProt Q8NEB9) (assay: Vps34 Biochemical Assay: Dilution series of compounds of the invention were prepared in DMSO at 100 times the final assay concentration (n1=n0/3 in 10 points). The compounds were further diluted to 4 times the assay concentration in assay buffer (Life technologies buffer Q, PV5125, diluted 5 times supplemented with 2 mM DTT and 2 mM MnCl2). 2.5 μl of the diluted compounds were added to a 384 well assay plate followed by 2.5 μl of 16.5 nM Vps34 enzyme (Life technologies, PV5126). Enzyme and compounds were pre-incubated at rt for 15 min. Then 5 μl of substrate mix containing 20 μM ATP (Life technologies, PV3227) and 200 μM PI:PS substrate (Life technologies, PV5122) in assay buffer was added to the wells containing compound and enzyme. Mixing was performed by pipetting several times. The reaction was incubated at room temperature for 1 h. Then 5 μl stop-detection mix, prepared as described in the Adapta kinase assay kit instructions (Life technologies, PV5099) containing Adapta Eu-anti-ADP antibody (2.3 nM), Alexa Fluor 647 ADP tracer (9 nM) and EDTA (30 mM) in TR-FRET buffer, was added to quench the reaction. Mixing was performed by pipetting several times. The assay plate was then incubated at room temperature for 30 min and read with Artemis micro plate reader. Percent inhibition of the compounds as compared to DMSO treated control samples was calculated. By the use of Dotmatics software compound concentration versus percent inhibition was fitted to generate IC50 values.).
Phosphatidylinositol 3-kinase catalytic subunit type 3, sequence (Q8NEB9 whole entry): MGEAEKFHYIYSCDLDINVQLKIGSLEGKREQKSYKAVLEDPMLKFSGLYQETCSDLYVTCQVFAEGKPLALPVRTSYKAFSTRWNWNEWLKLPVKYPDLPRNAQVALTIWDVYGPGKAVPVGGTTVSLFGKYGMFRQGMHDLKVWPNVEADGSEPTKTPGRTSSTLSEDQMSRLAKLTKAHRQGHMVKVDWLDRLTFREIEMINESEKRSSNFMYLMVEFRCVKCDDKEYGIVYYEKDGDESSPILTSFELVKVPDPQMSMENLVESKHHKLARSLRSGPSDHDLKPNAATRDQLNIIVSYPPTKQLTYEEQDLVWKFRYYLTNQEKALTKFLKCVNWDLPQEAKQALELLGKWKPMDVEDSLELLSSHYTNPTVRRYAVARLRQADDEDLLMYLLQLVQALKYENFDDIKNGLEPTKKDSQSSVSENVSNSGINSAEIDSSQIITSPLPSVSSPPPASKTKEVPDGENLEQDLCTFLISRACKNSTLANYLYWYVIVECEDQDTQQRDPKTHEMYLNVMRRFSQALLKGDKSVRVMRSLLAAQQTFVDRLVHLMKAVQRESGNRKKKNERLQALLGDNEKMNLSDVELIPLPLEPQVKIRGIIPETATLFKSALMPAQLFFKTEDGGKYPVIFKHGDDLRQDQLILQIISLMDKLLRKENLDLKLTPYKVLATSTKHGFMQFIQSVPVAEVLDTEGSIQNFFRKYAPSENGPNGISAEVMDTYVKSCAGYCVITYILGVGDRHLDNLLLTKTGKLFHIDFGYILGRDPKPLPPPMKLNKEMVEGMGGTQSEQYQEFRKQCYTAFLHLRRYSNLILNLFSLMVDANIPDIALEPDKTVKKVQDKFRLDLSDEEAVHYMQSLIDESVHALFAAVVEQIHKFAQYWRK

IC50, < 5 nM:
C[C@@H]1COCCN1c1cc(N2CCN(S(=O)(=O)c3ccnn3C)CC2C(F)(F)F)[nH]c(=O)c1 (stereo partly drawn)
C[C@@H]1COCCN1c1cc(N2CCN(S(=O)(=O)C3CC3)CC2C(F)(F)F)[nH]c(=O)c1 (stereo partly drawn)
C[C@@H]1COCCN1c1cc(N2CCN(S(=O)(=O)N3CCOCC3)CC2C(F)(F)F)[nH]c(=O)c1 (stereo partly drawn)
